According to patent US20250059201A1, “CAMPTOTHECIN COMPOUND AND CONJUGATE THEREOF” (priority 2021, published 2025):
“And” between values parts separate entries of the source, which are not always exact repeats. Equal entries are not always repeated. Where two headings read alike, the source gives them in different places.

Assays:
Type in all cases: cell-based
BT-20 = experiment: Proliferation-inhibiting effect on tumor cells (SRB or MTT assay); details: Homo sapiens, BT-20, 144 h
Procedure: (§1) For cells growing by adherence, SRB assay was used to detect effect of antibody-drug conjugates or camptothecins on the proliferation of tumor cells in vitro cultured. A certain number of cells in exponential growth phase were inoculated in 96-well cell culture plates, and when the cells grew by adherence overnight, antibody drug conjugates or camptothecins of different concentrations were added into the cells. 144 hours later, the cells were fixed with trichloroacetic acid, and then stained with SRB (prepared in 1% glacial acetic acid at a concentration of 4 mg/mL). 10 mM Tris solution was added into each well to solubilize the bound SRB. OD values at 510 nm were read on a microplate reader.
(§2) Inhibition (%)=([…] of control well−OD value of dosed well)/OD value of control well×100%
(§3) For cells growing in suspension, MTT assay was used to detect effect of antibody-drug conjugates or camptothecins on the proliferation of tumor cells in vitro cultured. A certain number of cells in exponential growth phase were inoculated in 96-well cell culture plates, and when the cells grew in suspension overnight, antibody-drug conjugates or camptothecins of different concentrations were added into the cells. 144 hours later, MTT was added to each well of the plates, and the incubation was continued for 4 hours at 37° C. in a 5% CO2 saturated humidity incubator. Next, 100 μL of SDS-isobutanol-HCl solution was added into each well of the plates, and OD values at 570 nm and 690 nm were read on a microplate reader.
(§4) Half maximal inhibitory concentration (IC50) was calculated from the inhibition (%) at those different concentrations using the software Graphpad Prism 8.0. The experiment was repeated once and the data was expressed as mean±SD.

Calu-3 = experiment: as above; details: Homo sapiens, Calu-3, 144 h
Procedure: as §1, §2, §3, §4

MDA-MB-468 = experiment: as above; details: Homo sapiens, MDA-MB-468, 144 h, read-out: IC50 (nM) Mean ± SD
Procedure: as §1, §2, §3, §4

HT1376 = experiment: as above; details: Homo sapiens, HT-1376, 144 h
Procedure: as §1, §2, §3, §4

Colo 205 = experiment: as above; details: Homo sapiens, COLO 205, 144 h
Procedure: as §1, §2, §3, §4

MCF-7 = experiment: as above; details: Homo sapiens, MCF7, 144 h
Procedure: as §1, §2, §3, §4

HT-29 = experiment: as above; details: Homo sapiens, HT-29, 144 h
Procedure: as §1, §2, §3, §4

BxPC-3 = experiment: as above; details: Homo sapiens, BXPC-3, 144 h
Procedure: as §1, §2, §3, §4

[1] = test system: NCI-N87 human gastric cancer cells; experiment: Comparative study of the activity of camptothecins (CCK-8 cell killing); details: Homo sapiens, NCI-N87, 96 h, read-out: Maximum Killing (%), NCI-N87, killing days 4 days
Procedure: (§5) KB oral epithelial cancer cells (purchased from: ATCC) were cultured in DMEM medium supplemented with 10% FBS; NCI-N87 human gastric cancer cells (purchased from: ATCC) were cultured in RPMI1640 medium supplemented with 10% FBS; HT29 human colon cancer cells (purchased from: ATCC) were cultured in RPMI1640 medium supplemented with 10% FBS; and BxPC-3 human pancreatic adenocarcinoma cells (purchased from: ATCC) were cultured in RPMI1640 medium supplemented with 10% FBS.
(§6) Using corresponding media described above and in cell plates, the density of KB cells was adjusted to 2×10^4/mL; the density of NCI-N87 cells was adjusted to 5×10^4/mL; the density of HT29 cells was adjusted to 5×10^4/mL, and the cells were plated onto 96-well transparent flat bottom plates, at 100 µL/well, and cultured overnight; and the density of BxPC-3 cells was adjusted to 5×10^4/mL.
(§7) Samples to be detected were diluted to 20 μM with corresponding media, then 5-fold gradient dilution was performed, and 9 concentrations were obtained. A well having cells but with no any sample added was set as the well showing maximum cell growth; and a well having no cells was set as the well of medium background. The diluted samples were added into the cell plates, at 100 μL/well, which were then incubated in a C02 incubator for 96 hours. After the incubation, CCK-8 (purchased from: DOJINDO LABORATORIES) prepared beforehand was added into the plates, at 20 μL/well, and after further 3 hours incubation in the C02 incubator, […] were read on a microplate reader.
(§8) Data obtained was fitted to a four-parameter curve using software Prism7, and equation for calculating maximum killing is: maximum killing (%)=1−(OD450 value of the well showing maximum killing—OD450 value of the well of medium background)/(OD450 value of the well showing maximum cell growth—OD450 value of the cell of medium background)[…].

[2] = test system: BxPC-3 human pancreatic adenocarcinoma cells; experiment: as above
Procedure: as §5, §6, §7, §8

BxPC-3 cells = experiment: Apoptosis-inducing effect; details: BxPC-3, 120 hours, over the tested concentrations
Procedure: BxPC-3 cells (purchased from: ATCC) were inoculated into 6-well plates, and then treated with Trop2-ADC-14 (0.020, 0.196, and 1.963 nM), DS-1062 (0.020, 0.196, and 1.963 nM), the mAb in Trop2-ADC-14 (i.e., antibody h23-12) (6.728 nM) and Compound 3 (0.1, 1, and 10 nM) for 120 hours. Next, the cells were harvested, and Annexin-V-FITC and PI were added thereto, and the cells were stained at room temperature for 15 minutes in dark, and finally were re-suspended in the added 300 μl of 1× binding buffer. Apoptosis was detected with a flow cytometer (BD AccuriTMC6 Plus flow cytometer), for which 1×10^4 cells were gated for each group. Experimental data was analyzed using software BD CSampler™ Plus C6.

[3] = read-out: IC50 (nM) 1st experiment
[4] = read-out: IC50 (nM) 2nd experiment

For `CC[C@@]1(O)C(=O)OCc2c1cc1n(c2=O)Cc2c-1nc1ccc(N)c3c1c2C(F)(F)CC3` [Compound 3], the IC50 (BT-20; [3]) was 0.5 nM, the IC50 (BT-20; [4]) was 0.5 nM and the IC50 (BT-20; read-out: IC50 (nM) Mean ± SD) was 0.53 ± 0.01 nM. It also gave an IC50 (Calu-3; [3]) of 0.4 nM, an IC50 (Calu-3; [4]) of 0.4 nM and an IC50 (Calu-3; read-out: IC50 (nM) Mean ± SD) of 0.4 ± 0.02 nM. The IC50 (MDA-MB-468) was 0.16 ± 0.01 nM, the IC50 (HT1376; [3]) was 1 nM and the IC50 (HT1376; [4]) was 0.9 nM. For the same compound, the IC50 (HT1376; read-out: IC50 (nM) Mean ± SD) was 0.98 ± 0.08 nM, the IC50 (Colo 205; [3]) was 0.2 nM and the IC50 (Colo 205; [4]) was 0.2 nM. For the same compound, the IC50 (Colo 205; read-out: IC50 (nM) Mean ± SD) was 0.21 ± 0.05 nM, the IC50 (MCF-7; [3]) was 0.2 nM and the IC50 (MCF-7; [4]) was 0.1 nM. It also gave an IC50 (MCF-7; read-out: IC50 (nM) Mean ± SD) of 0.11 ± 0.08 nM, an IC50 (HT-29; [3]) of 0.4 nM and an IC50 (HT-29; [4]) of 0.4 nM. It also gave an IC50 (HT-29; read-out: IC50 (nM) Mean ± SD) of 0.4 ± 0.01 nM, an IC50 (BxPC-3; [3]) of 0.2 nM and an IC50 (BxPC-3; [4]) of 0.2 nM. The IC50 (BxPC-3; read-out: IC50 (nM) Mean ± SD) was 0.17 ± 0.01 nM, the Emax [1] was 92.1% and the EC50 ([2]; BxPC-3, killing days 4 days) was 3.23 nM and 5.82 nM. The Emax ([2]; Homo sapiens, BXPC-3, 96 h, read-out: Maximum Killing (%), BxPC-3, killing days 4 days) was 98% and the apoptosis-inducing effect (BxPC-3 cells) was “induced apoptosis of BxPC-3 cells in a concentration-dependent manner”.
